Patent US20090291104A1 (Florida Atlantic University, priority 2005, published 2009)
Bridge positions count the residues as written; N and C are the ends. Peptide text beside a SMILES is read from it.

Assays:
[1] = biological target: Kv1.3 potassium channel (transiently transfected into HEK293 cells); test: cell-based or functional assay
[2] = biological target: Kv1.3 potassium channel (transiently transfected into HEK293 cells)
[3] = biological target: T1, Kv1.3 (Homo sapiens, UniProt P22001); test: cell-based
T1 sequence (P22001 whole entry): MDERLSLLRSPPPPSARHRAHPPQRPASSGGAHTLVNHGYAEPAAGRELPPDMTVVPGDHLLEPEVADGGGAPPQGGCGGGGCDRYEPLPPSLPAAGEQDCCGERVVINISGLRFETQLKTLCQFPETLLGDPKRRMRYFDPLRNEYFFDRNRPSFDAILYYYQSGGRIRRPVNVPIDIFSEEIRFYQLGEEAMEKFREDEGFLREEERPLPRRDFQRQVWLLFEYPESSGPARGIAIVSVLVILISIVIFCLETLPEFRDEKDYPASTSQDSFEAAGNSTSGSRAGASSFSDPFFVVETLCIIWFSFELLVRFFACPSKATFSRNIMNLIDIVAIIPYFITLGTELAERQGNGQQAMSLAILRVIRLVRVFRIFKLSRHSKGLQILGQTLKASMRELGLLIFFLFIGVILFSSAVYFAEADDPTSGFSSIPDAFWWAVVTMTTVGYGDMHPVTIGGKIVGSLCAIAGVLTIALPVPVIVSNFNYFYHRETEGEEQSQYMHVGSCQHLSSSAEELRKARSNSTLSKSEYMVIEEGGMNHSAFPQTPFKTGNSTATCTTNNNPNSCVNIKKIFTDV

[4] = tested on: K+ channels in PC12 cells
[5] = biological target: T1, Kv1.3

Compound | reduction of Kv1.3 K+ currents (whole-cell voltage clamp, HEK293) [1] | Kd [2] | Kd [3] | block of K+ channels [4] | V50 of steady-state activation curve (Boltzmann fit) [5] | V50 of steady-state current-voltage relationship [5] | V50 of steady-state current-voltage relationship after washing the toxin [5] | reduction of Kv1.3 currents [5] | reversibility of block [5] | voltage dependence of reduction in K+ current [5]
vil14a conotoxin (framework 14 conotoxin from Conus villepinii) (peptide) | 39% | 15.6 µM | – | – | – | – | – | – | – | –
CC[C@H](C)[C@@H]1NC(=O)[C@@H](NC(=O)[C@H](CCCNC(=N)N)NC(=O)CNC(=O)[C@H](CC(C)C)NC(=O)CNC(=O)CN)CSSC[C@@H](C(=O)N[C@@H](Cc2ccc(O)cc2)C(=O)O)NC(=O)[C@H](CCSC)NC(=O)[C@H]([C@@H](C)O)NC(=O)[C@H](CCCCN)NC(=O)[C@@H]2CSSC[C@H](NC(=O)[C@H](CC(N)=O)NC(=O)[C@H](Cc3ccc(O)cc3)NC1=O)C(=O)N[C@@H](CCSC)C(=O)N[C@@H](CC(N)=O)C(=O)N[C@@H](CO)C(=O)NCC(=O)NCC(=O)NCC(=O)N[C@@H](CC(C)C)C(=O)N[C@@H](CO)C(=O)N[C@@H](Cc1ccccc1)C(=O)N[C@@H]([C@@H](C)CC)C(=O)N[C@@H](CCC(N)=O)C(=O)N2 [vil14a] (H-GGLGRCIYNCMNSGGGLSFIQCKTMCY-OH; disulfide 6-26, 10-22) | – | – | 15.6 µM | blocks K^+ channels | +9 mV | 19 mV | −4.4 mV | ≈ 39% | reversible | voltage dependent
